Assay results as given in patent US9278920B2, “Pleuromutilin derivatives for use in the treatment of diseases mediated by microbes” (Nabriva Therapeutics AG, priority 2010, dated 2016).
Where a name gives a salt, the structure may show the parent alone.

Legend:
[1] = system: Streptococcus pneumoniae ATCC49619; test: MIC by Agar Dilution Test or Microdilution Test (CLSI M7-A7); type: cell-based; settings: in vitro, strain ATCC49619, read-out: MIC against Streptococcus pneumoniae ATCC49619
Description: (§1) The in vitro activity against aerobic bacteria was determined by Agar Dilution Test or Microdilution Test according to the Clinical and Laboratory Standards Institute (CLSI, former NCCLS) Document M7-A7 Vol. 26, No. 2: “Methods for Dilution Antimicrobial Susceptibility Tests for Bacteria that Grow Aerobically—Approved Standard; Seventh Edition (2006)”; and the test against anaerobic bacteria was performed according to the Clinical and Laboratory Standards Institute (CLSI, former NCCLS), Document, M11-A6, Vol. 24, No. 2: “Methods for Antimicrobial Susceptibility Testing of Anaerobic Bacteria—Approved Standard; Sixth Edition (2004)” and the in vivo activity was tested by the septicemia mouse model against Staphylococcus aureus.

[2] = system: Staphylococcus aureus ATCC49951; test: as above; type: cell-based; settings: in vitro, strain ATCC49951, read-out: MIC against Staphylococcus aureus ATCC49951
Description: as §1

MIC [1]: ≤ 2 µg/mL | MIC [2]: ≤ 2 µg/mL
SMILES: C=C[C@]1(C)C[C@@H](OC(=O)CSC2CCC(N)CCC2O)[C@]2(C)C(C)CCC3(CCC(=O)C32)[C@@H](C)C1O (mixture of isomers) [Example 12, 14-O-{[(1R, 2R, 5R)-5-Amino-2-hydroxy-cycloheptylsulfanyl]-acetyl}-mutilin hydrochloride and the (1S, 2S, 5S), (1R, 2R, 5S), (1S, 2S, 5R) diastereomers thereof]
